Measurements published in a compilation of properties of binary mixtures (doi:10.1016/j.molliq.2020.112816).

Assay: xn = mol fraction of the nth substance listed
Conditions: 101 kPa

NC=O + CCCC[n+]1ccn(C)c1.F[B-](F)(F)F
Conditions | speed of sound [m/s] | viscosity [mPa·s]
293.15 K, x2 = 0.0675 | 1614.2 | 4.01
293.15 K, x2 = 0.135 | 1613.4 | 4.81
293.15 K, x2 = 0.2054 | 1611.9 | 7
293.15 K, x2 = 0.4499 | 1602.9 | 24.97
293.15 K, x2 = 0.6639 | 1593.2 | 54.2
293.15 K, x2 = 0.7588 | 1588.7 | 71.4
293.15 K, x2 = 0.8107 | 1586.2 | 81.8
293.15 K, x2 = 0.8626 | 1583.7 | 93.3
293.15 K, x2 = 0.9313 | 1580.3 | 109.6
298.15 K, x2 = 0 | 1602.4 | 3.27
298.15 K, x2 = 0.0675 | 1603 | 3.73
298.15 K, x2 = 0.135 | 1602.3 | 4.65
298.15 K, x2 = 0.2054 | 1600.8 | 6.6
298.15 K, x2 = 0.3629 | 1595.4 | 14.43
298.15 K, x2 = 0.4499 | 1591.8 | 20.95
298.15 K, x2 = 0.5095 | 1589.3 | 26.31
298.15 K, x2 = 0.569 | 1586.6 | 32.4
298.15 K, x2 = 0.6639 | 1582.2 | 43.6
298.15 K, x2 = 0.8626 | 1572.7 | 73.4
298.15 K, x2 = 0.9313 | 1569.3 | 85.6
303.15 K, x2 = 0 | 1590.5 | 2.918
303.15 K, x2 = 0.0675 | 1591.4 | 3.28
303.15 K, x2 = 0.135 | 1590.9 | 4.23
303.15 K, x2 = 0.2054 | 1589.4 | 5.84
303.15 K, x2 = 0.2758 | 1587.2 | 8.24
303.15 K, x2 = 0.3629 | 1584 | 12.35
303.15 K, x2 = 0.5095 | 1578 | 21.66
303.15 K, x2 = 0.569 | 1575.3 | 26.36
303.15 K, x2 = 0.6639 | 1570.9 | 35
303.15 K, x2 = 0.7588 | 1566.5 | 44.9
308.15 K, x2 = 0 | 1578.3 | 2.607
308.15 K, x2 = 0.0675 | 1579.4 | 3.049
308.15 K, x2 = 0.135 | 1579 | 3.99
308.15 K, x2 = 0.2054 | 1577.5 | 5.48
308.15 K, x2 = 0.3629 | 1572.2 | 10.72
308.15 K, x2 = 0.5095 | 1566.2 | 17.95
308.15 K, x2 = 0.569 | 1563.6 | 21.5
308.15 K, x2 = 0.6639 | 1559.3 | 27.92
308.15 K, x2 = 0.7588 | 1554.8 | 35.3
308.15 K, x2 = 0.8107 | 1552.3 | 39.7
308.15 K, x2 = 0.8626 | 1549.8 | 44.5
313.15 K, x2 = 0 | 1565.9 | 2.328
313.15 K, x2 = 0.0675 | 1567.3 | 2.599
313.15 K, x2 = 0.135 | 1567 | 3.4
313.15 K, x2 = 0.2758 | 1563.3 | 6.21
313.15 K, x2 = 0.5095 | 1554.2 | 14.39
313.15 K, x2 = 0.569 | 1551.6 | 17.16
313.15 K, x2 = 0.6639 | 1547.3 | 22.22
313.15 K, x2 = 0.7588 | 1542.9 | 28.02
313.15 K, x2 = 0.8107 | 1540.4 | 31.6
313.15 K, x2 = 0.8626 | 1537.8 | 35.2
313.15 K, x2 = 0.9313 | 1534.3 | 40.4
318.15 K, x2 = 0 | 1553.1 | 2.096
318.15 K, x2 = 0.0675 | 1554.9 | 2.4
318.15 K, x2 = 0.135 | 1554.6 | 2.982
318.15 K, x2 = 0.2054 | 1553 | 3.88
318.15 K, x2 = 0.3629 | 1547.7 | 7.11
318.15 K, x2 = 0.4499 | 1544.2 | 9.72
318.15 K, x2 = 0.5095 | 1541.8 | 11.78
318.15 K, x2 = 0.7588 | 1530.5 | 23.24
318.15 K, x2 = 0.8107 | 1528 | 26.2
318.15 K, x2 = 0.9313 | 1521.9 | 33.8
